PMC6222292 (Computational and Structural Biotechnology Journal, 2018)

Target: T1, soluble epoxide hydrolase (sEH) (Homo sapiens, UniProt P34913)
T1 sequence (P34913 1-555): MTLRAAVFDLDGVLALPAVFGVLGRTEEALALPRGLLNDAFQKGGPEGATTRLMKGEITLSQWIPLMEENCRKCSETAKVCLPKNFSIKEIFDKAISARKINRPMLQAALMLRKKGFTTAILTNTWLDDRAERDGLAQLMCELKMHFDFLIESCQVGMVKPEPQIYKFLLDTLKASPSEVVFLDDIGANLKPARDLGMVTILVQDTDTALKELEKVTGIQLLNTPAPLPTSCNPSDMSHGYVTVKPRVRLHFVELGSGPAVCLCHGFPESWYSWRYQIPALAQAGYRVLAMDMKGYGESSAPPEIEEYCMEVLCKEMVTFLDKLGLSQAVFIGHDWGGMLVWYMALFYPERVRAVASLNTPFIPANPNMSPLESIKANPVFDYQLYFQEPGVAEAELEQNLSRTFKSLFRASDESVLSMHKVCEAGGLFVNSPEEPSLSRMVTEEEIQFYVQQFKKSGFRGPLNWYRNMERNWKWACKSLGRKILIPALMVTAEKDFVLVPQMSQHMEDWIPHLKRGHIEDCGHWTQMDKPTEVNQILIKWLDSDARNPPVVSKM
Test: fluorescent PHOME hydrolysis assay
Format: biochemical

IC50 [µM] | SMILES
10.4 ± 1.1 | COc1cc(/C=C/C(=O)NCCc2ccc(O)cc2)ccc1O [compound 2, N-trans-feruloyltyramine]
9 ± 0.8 | O=C(/C=C/c1ccc(O)cc1)NCCc1ccc(O)cc1 [compound 1, N-trans-coumaroyltyramine]
